Experimental data published in ChEMBL document CHEMBL3885881, “DrugMatrix”.

Species on record: Rattus norvegicus
Assay: DrugMatrix - Regimen: Daily Repeat
Assay type: toxicity, organism-based, Sprague-Dawley
Set-up: regimen Daily Repeat, gender Male, age 6-8 weeks
Conditions: in vivo, sc, route subcutaneous, […]; for ABSOLUTE BASOPHIL / ABSOLUTE EOSINOPHIL / ABSOLUTE LYMPHOCYTE / ABSOLUTE MONOCYTE / ABSOLUTE SEGMENTED NEUTROPHIL / BASOPHIL / EOSINOPHIL / ERYTHROCYTE COUNT / HEMATOCRIT / HEMOGLOBIN / LEUKOCYTE COUNT / LYMPHOCYTE / MEAN CORPUSCULAR HEMOGLOBIN / MEAN CORPUSCULAR HEMOGLOBIN CONCENTRATION / MEAN CORPUSCULAR VOLUME / MONOCYTE / NEUTROPHIL / NUCLEATED RED BLOOD CELLS / PLATELET COUNT: tissue Blood; for ALANINE AMINOTRANSFERASE / ALBUMIN / ALKALINE PHOSPHATASE / ASPARTATE AMINOTRANSFERASE / BLOOD UREA NITROGEN / CARBON DIOXIDE / CHLORIDE / CHOLESTEROL / CREATINE PHOSPHOKINASE / CREATININE / GLUCOSE / LACTATE DEHYDROGENASE / LIPASE / PHOSPHORUS / POTASSIUM / SODIUM / TOTAL BILIRUBIN / TOTAL PROTEIN / URIC ACID: tissue Plasma
[1] = 0 mg/kg, 72 h, dose level Control, time 3 day
[2] = 0 mg/kg, 120 h, dose level Control, time 5 day
[3] = 150 mg/kg, 72 h, dose level High, time 3 day

CN(Cc1ccc(C(C)(C)C)cc1)Cc1cccc2ccccc12 [BUTENAFINE]
ABSOLUTE BASOPHIL [1]: 0 CELLS/uL
ABSOLUTE EOSINOPHIL [1]: 0 CELLS/uL
ABSOLUTE LYMPHOCYTE [1]: 10887 CELLS/uL
ABSOLUTE MONOCYTE [1]: 56 CELLS/uL
ABSOLUTE SEGMENTED NEUTROPHIL [1]: 1057 CELLS/uL
BASOPHIL [1]: 0%
EOSINOPHIL [1]: 0%
ERYTHROCYTE COUNT [1]: 5.31 x10E6/uL
HEMATOCRIT [1]: 33.78%
HEMOGLOBIN [1]: 13.4 G/DL
LEUKOCYTE COUNT [1]: 12 x10E3/uL
LYMPHOCYTE [1]: 91.17%
MEAN CORPUSCULAR HEMOGLOBIN [1]: 25.25 pg
MEAN CORPUSCULAR HEMOGLOBIN CONCENTRATION [1]: 39.65 G/DL
MEAN CORPUSCULAR VOLUME [1]: 63.65 fL
MONOCYTE [1]: 0.5%
NEUTROPHIL [1]: 8.33%
NUCLEATED RED BLOOD CELLS [1]: 0 /100WBC
PLATELET COUNT [1]: 1142 x10E3/uL
ALANINE AMINOTRANSFERASE [1]: 57.17 u/L
ALBUMIN [1]: 4.28 G/DL
ALKALINE PHOSPHATASE [1]: 425.83 u/L
ASPARTATE AMINOTRANSFERASE [1]: 93.83 u/L
BLOOD UREA NITROGEN [1]: 14.17 mg/dL
CARBON DIOXIDE [1]: 33.5 mmol/L
CHLORIDE [1]: 100 MEQ/L
CHOLESTEROL [1]: 70.33 mg/dL
CREATINE PHOSPHOKINASE [1]: 438.67 u/L
CREATININE [1]: 0.19 mg/dL
GLUCOSE [1]: 138.5 mg/dL
LACTATE DEHYDROGENASE [1]: 190.17 u/L
LIPASE [1]: 9.83 u/L
PHOSPHORUS [1]: 11.05 mg/dL
POTASSIUM [1]: 6.59 MEQ/L
SODIUM [1]: 143.58 MEQ/L
TOTAL BILIRUBIN [1]: 0.22 mg/dL
TOTAL PROTEIN [1]: 6.15 G/DL
URIC ACID [1]: 1.3 mg/dL
ABSOLUTE BASOPHIL [2]: 0 CELLS/uL
ABSOLUTE EOSINOPHIL [2]: 91.17 CELLS/uL
ABSOLUTE LYMPHOCYTE [2]: 11847.67 CELLS/uL
ABSOLUTE MONOCYTE [2]: 172.83 CELLS/uL
ABSOLUTE SEGMENTED NEUTROPHIL [2]: 1105 CELLS/uL
BASOPHIL [2]: 0%
EOSINOPHIL [2]: 0.67%
ERYTHROCYTE COUNT [2]: 5.35 x10E6/uL
HEMATOCRIT [2]: 33.65%
HEMOGLOBIN [2]: 13.42 G/DL
LEUKOCYTE COUNT [2]: 13.22 x10E3/uL
LYMPHOCYTE [2]: 89.83%
MEAN CORPUSCULAR HEMOGLOBIN [2]: 25.12 pg
MEAN CORPUSCULAR HEMOGLOBIN CONCENTRATION [2]: 39.9 G/DL
MEAN CORPUSCULAR VOLUME [2]: 63 fL
MONOCYTE [2]: 1.33%
NEUTROPHIL [2]: 8.17%
NUCLEATED RED BLOOD CELLS [2]: 0 /100WBC
PLATELET COUNT [2]: 1347.83 x10E3/uL
ALANINE AMINOTRANSFERASE [2]: 50 u/L
ALBUMIN [2]: 4.1 G/DL
ALKALINE PHOSPHATASE [2]: 329.17 u/L
ASPARTATE AMINOTRANSFERASE [2]: 77.17 u/L
BLOOD UREA NITROGEN [2]: 16.83 mg/dL
CARBON DIOXIDE [2]: 34.83 mmol/L
CHLORIDE [2]: 99.83 MEQ/L
CHOLESTEROL [2]: 75.67 mg/dL
CREATINE PHOSPHOKINASE [2]: 295.83 u/L
CREATININE [2]: 0.18 mg/dL
GLUCOSE [2]: 156.33 mg/dL
LACTATE DEHYDROGENASE [2]: 166.83 u/L
LIPASE [2]: 9.83 u/L
PHOSPHORUS [2]: 12.18 mg/dL
POTASSIUM [2]: 6.69 MEQ/L
SODIUM [2]: 143.97 MEQ/L
TOTAL BILIRUBIN [2]: 0.22 mg/dL
TOTAL PROTEIN [2]: 6.05 G/DL
URIC ACID [2]: 1.6 mg/dL
ABSOLUTE BASOPHIL [3]: 0 CELLS/uL
ABSOLUTE EOSINOPHIL [3]: 0 CELLS/uL
ABSOLUTE LYMPHOCYTE [3]: 11405 CELLS/uL
ABSOLUTE MONOCYTE [3]: 88.33 CELLS/uL
ABSOLUTE SEGMENTED NEUTROPHIL [3]: 1473.33 CELLS/uL
BASOPHIL [3]: 0%
EOSINOPHIL [3]: 0%
ERYTHROCYTE COUNT [3]: 5.31 x10E6/uL
HEMATOCRIT [3]: 33.8%
HEMOGLOBIN [3]: 13.6 G/DL
LEUKOCYTE COUNT [3]: 12.97 x10E3/uL
LYMPHOCYTE [3]: 88%
MEAN CORPUSCULAR HEMOGLOBIN [3]: 25.63 pg
MEAN CORPUSCULAR HEMOGLOBIN CONCENTRATION [3]: 40.27 G/DL
MEAN CORPUSCULAR VOLUME [3]: 63.67 fL
MONOCYTE [3]: 0.67%
NEUTROPHIL [3]: 11.33%
NUCLEATED RED BLOOD CELLS [3]: 0 /100WBC
PLATELET COUNT [3]: 1396 x10E3/uL
ALANINE AMINOTRANSFERASE [3]: 55 u/L
ALBUMIN [3]: 3.97 G/DL
ALKALINE PHOSPHATASE [3]: 429.67 u/L
ASPARTATE AMINOTRANSFERASE [3]: 77.33 u/L
BLOOD UREA NITROGEN [3]: 15.67 mg/dL
CARBON DIOXIDE [3]: 31.67 mmol/L
CHLORIDE [3]: 101.67 MEQ/L
CHOLESTEROL [3]: 73 mg/dL
CREATINE PHOSPHOKINASE [3]: 247 u/L
CREATININE [3]: 0.17 mg/dL
GLUCOSE [3]: 147.33 mg/dL
LACTATE DEHYDROGENASE [3]: 229.67 u/L
LIPASE [3]: 9 u/L
PHOSPHORUS [3]: 13.73 mg/dL
POTASSIUM [3]: 6.88 MEQ/L
SODIUM [3]: 145.7 MEQ/L
TOTAL BILIRUBIN [3]: 0.2 mg/dL
TOTAL PROTEIN [3]: 5.73 G/DL
URIC ACID [3]: 1.4 mg/dL
